Values quoted from earlier work as cited in US20030195186A1, “Methods of treating medication-, substance-, disease-, and other medical condition-related sexual dysfunction” (priority 2002, published 2003).

Conditions: intrathecal; spinal-cord injured male patients; case reports

CN(C)C(=O)Oc1cccc([N+](C)(C)C)c1 [neostigmine]
assisting patients with anejaculation to obtain ejaculation: being able to obtain ejaculation
